Source: patent US20130171263A1, “Snake Powder Extract For Treatment Of Cancer” (priority 2006, published 2013)

Columns and labels:
breast cancer cells = conditions: cited from earlier work
MDA-MB-435 tumor masses = conditions: cited from earlier work
[1] = tested on: tumor cell lines (K562, Raji, Jurkatt, CEM, MCF-7, MDA-MB-231, MD-MB-468, LNCaP, PC-3, HT-29, HCT-116, PANC-1, GL10-1); test: Tumor cell proliferation, oxygen biosensor; format: cell-based; conditions: DMSO, ethanol and PBS solutions, at least 24 hour incubation, FIGS. 6-8
Excerpt: Referring to FIGS. 6, 7, and 8 the effect of snake extract on tumor cell proliferation utilizing the DMSO, ethanol, and PBS solutions, is respectively analyzed. The methodology used to analyze tumor cell proliferation was oxygen biosensor. With this methodology culture plates are coated with an oxygen sensitive fluorescent compound embedded in a gas-permeable and hydrophobic matrix permanently attached to the bottom of a multi-well plate. The amount of fluorescence correlates directly to the rate of oxygen consumption in the well, providing a signal that can be directly correlated to cell growth.
In the experiments in FIGS. 1-8, the experiments were done with an effective amount of each analyzed target cancer cell lines dissolved within each snake extract solution measured as noted in each Figure for at least a 24 hour incubation period.
The following cell lines were utilized in the tests listed above: • Leukemia/Lymphoma: K562, Raji, Jurkatt, CEM; • Breast Carcinoma MCF-7, MDA-MB-231, MD-MB-468; • Prostate Carcinoma LNCaP, PC-3; • Colorectal Carcinoma: HT-29, HCT-116; • Pancreatic Carcinoma: PANC-1; • Gliobastaoma: GL10-1.

angiogenesis = conditions: elicited by basic fibroblast growth factor; cited from earlier work
B16F10 solid tumor = conditions: cited from earlier work
Artemia salina = test: Brine shrimp lethality assay; format: in vivo; conditions: 24 h, nauplii
Method: The eggs of brine shrimp, Airtime salina (Leach), are used in monitoring bioactive compounds. The eggs are readily available in pet shops at low cost and remain viable for years in the dry state. The brine shrimp assay has advantages of being rapid (24 hrs), inexpensive, and simple. No aseptic techniques are required. It easily utilizes a large number of organisms for statistical validation and requires no special equipment and a relatively small amount of sample.
The assay was carried out with Artemia salina eggs. 50 mg of Artemia salina eggs in a beaker containing sea salt (6 g), yeast (0.9 mg) and distilled water (150 ml) were incubated at 27-28° C. for 24 hrs. The newly hatched nauplii were concentrated. From this volume, aliquots of 50 μl (approximately 18-20 nauplii) were pipette directly into a 24 well plates containing sea water (sw), −ve control (DMSO+sw), +ve control (emetine) or different concentrations of extracts (62.5-500 μg/ml). Assay was carried out in triplicate. The plates were sealed and incubated at 27-28° C. for 24 h. At the end of the 24-h incubation period, the content of each well was pipette into a watch glass individually. Survival was assessed by scoring the number of dead nauplii using a microscope. Once counts of dead nauplii had been taken, 0.5 ml of methanol was added to kill all remaining nauplii. The contents of each well were then recorded and result tabulated as (X/Y; where X=number dead and Y=number of dead and alive).

Contortrostatin
cytotoxicity to cancer cells (breast cancer cells): not cytotoxic
proliferation of the breast cancer cells in vitro (breast cancer cells): does not inhibit proliferation
angiogenesis induced by breast cancer (MDA-MB-435 tumor masses; immunohistochemical quantitation of vascular endothelial cells in tumor tissue): inhibiting angiogenesis
inhibited growth of tumor (MDA-MB-435 tumor masses; injected daily at 5 microgram per mouse): 74%

CC[C@@]1(O)C(=O)OCc2c1cc1n(c2=O)Cc2cc3ccccc3nc2-1 [Camptothecin]
inhibiting cell proliferation [1]: more effective at inhibiting cell proliferation of different cell lines than the snake powder extract

Rhodostomin
angiogenesis (angiogenesis): inhibit angiogenesis
survival (B16F10 solid tumor; C57BL/6 mice): prolonged survival
tumor growth (B16F10 solid tumor; subcutaneously inoculated B16F10 solid tumor): suppressed tumor growth

CC[C@H]1CN2CCc3cc(OC)c(OC)cc3[C@@H]2C[C@@H]1C[C@H]1NCCc2cc(OC)c(OC)cc21 [Emetine]
% mortality (Artemia salina; concentration 62.5 (extracts 62.5-500 μg/ml)): 58.2%
% mortality (Artemia salina; concentration 125 (extracts 62.5-500 μg/ml)): 100%
% mortality (Artemia salina; concentration 250 (extracts 62.5-500 μg/ml)): 100%
% mortality (Artemia salina; concentration 500 (extracts 62.5-500 μg/ml)): 100%
